Reference: ChEMBL document CHEMBL5252515, “Discovery of 6-Amino-2-{[(1S)-1-methylbutyl]oxy}-9-[5-(1-piperidinyl)pentyl]-7,9-dihydro-8H-purin-8-one (GSK2245035), a Highly Potent and Selective Intranasal Toll-Like Receptor 7 Agonist for the Treatment of Asthma” (J Med Chem, 2016)
Active and inactive are the calls of the source. No cut-off for these calls is given here.

Experiments:
[1] = biological target: T1, Toll-like receptor 7 (Macaca fascicularis) (UniProt B3Y652); assay: In vivo target occupancy at TLR7 in cynomolgus monkey assessed as fold increase in IFIT2 mRNA expression in nasal scrape at 3 ng/kg administered intranasally incubated for 24 hrs by TaqMan analysis (reference value: 2.1); format: functional
T1 sequence (whole entry): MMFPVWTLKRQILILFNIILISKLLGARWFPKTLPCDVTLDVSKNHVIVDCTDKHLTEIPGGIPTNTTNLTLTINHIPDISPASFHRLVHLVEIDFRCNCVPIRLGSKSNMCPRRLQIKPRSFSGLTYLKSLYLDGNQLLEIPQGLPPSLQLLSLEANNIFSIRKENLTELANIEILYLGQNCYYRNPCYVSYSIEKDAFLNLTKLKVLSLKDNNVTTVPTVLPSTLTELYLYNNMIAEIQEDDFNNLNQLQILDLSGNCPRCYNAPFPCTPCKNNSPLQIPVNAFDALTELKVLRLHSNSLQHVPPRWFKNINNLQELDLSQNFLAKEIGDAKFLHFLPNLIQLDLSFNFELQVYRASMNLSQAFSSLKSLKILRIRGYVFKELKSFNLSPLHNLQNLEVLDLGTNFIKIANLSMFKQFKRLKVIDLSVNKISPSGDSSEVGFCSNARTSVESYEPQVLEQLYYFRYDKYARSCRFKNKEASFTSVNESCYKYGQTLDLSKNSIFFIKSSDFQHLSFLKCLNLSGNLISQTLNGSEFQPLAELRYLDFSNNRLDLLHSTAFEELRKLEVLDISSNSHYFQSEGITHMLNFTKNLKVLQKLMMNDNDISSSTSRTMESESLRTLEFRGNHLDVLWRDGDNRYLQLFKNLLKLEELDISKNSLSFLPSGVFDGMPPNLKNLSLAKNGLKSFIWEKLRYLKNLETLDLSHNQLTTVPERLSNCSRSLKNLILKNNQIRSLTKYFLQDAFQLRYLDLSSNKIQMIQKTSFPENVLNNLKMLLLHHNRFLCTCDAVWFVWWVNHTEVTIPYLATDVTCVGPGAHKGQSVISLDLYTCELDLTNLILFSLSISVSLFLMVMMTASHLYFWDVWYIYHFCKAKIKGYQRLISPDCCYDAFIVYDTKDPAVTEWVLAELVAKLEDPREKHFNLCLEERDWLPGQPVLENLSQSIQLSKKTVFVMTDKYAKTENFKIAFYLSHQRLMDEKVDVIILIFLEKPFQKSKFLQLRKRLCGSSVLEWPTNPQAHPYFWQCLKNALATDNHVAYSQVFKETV

PBMC = assay: Immunomodulatory activity in human PBMC assessed as reduction in house dust mite induced IL-5 level after 6 days; format: functional, cell-based; settings: dose 0.01-10000 nM, time 6.0 day
[2] = biological target: T1, Toll-like receptor 7 (Macaca fascicularis); assay: In vivo target occupancy at TLR7 in cynomolgus monkey assessed as fold increase in CXCL10 mRNA expression in nasal scrape at 30 ng/kg administered intranasally incubated for 24 hrs by TaqMan analysis (reference value: 1.6); format: functional
[3] = biological target: T2, Toll-like receptor 9 (Homo sapiens) (UniProt Q9NR96); assay: Agonist activity at TLR9 (unknown origin) expressed in human HEK cells upto 50 uM by luciferase reporter assay; format: cell-based
T2 sequence (whole entry): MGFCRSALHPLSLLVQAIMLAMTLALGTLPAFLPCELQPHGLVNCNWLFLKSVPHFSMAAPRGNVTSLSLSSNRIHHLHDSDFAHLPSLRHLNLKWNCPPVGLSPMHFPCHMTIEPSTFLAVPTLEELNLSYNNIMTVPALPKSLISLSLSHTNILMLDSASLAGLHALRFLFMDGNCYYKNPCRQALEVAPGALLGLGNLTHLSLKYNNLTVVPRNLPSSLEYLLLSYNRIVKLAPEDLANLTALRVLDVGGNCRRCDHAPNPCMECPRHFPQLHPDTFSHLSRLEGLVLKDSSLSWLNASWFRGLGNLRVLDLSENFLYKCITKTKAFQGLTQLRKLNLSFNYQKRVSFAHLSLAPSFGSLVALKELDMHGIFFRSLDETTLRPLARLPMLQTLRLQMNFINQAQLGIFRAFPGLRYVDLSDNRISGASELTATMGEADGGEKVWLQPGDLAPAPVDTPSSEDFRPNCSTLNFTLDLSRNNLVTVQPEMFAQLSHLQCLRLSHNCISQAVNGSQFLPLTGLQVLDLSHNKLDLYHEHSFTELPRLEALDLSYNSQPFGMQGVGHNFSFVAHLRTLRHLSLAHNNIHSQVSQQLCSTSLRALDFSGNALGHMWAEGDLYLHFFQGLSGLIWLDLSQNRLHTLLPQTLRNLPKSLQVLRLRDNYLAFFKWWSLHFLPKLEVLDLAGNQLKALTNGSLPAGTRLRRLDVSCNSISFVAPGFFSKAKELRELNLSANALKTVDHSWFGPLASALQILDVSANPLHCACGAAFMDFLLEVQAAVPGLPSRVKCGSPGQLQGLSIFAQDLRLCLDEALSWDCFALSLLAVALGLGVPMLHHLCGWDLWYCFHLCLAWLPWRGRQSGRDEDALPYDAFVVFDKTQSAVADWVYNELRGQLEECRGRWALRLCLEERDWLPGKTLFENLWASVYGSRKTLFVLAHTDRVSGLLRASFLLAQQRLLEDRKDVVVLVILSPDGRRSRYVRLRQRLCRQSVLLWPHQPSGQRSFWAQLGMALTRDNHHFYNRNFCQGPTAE

Cynomolgus monkey = assay: Increase in TNF-alpha level in cynomolgus monkey serum at 3000 ng/kg, administered intranasally after 6 hrs; format: functional, organism-based; settings: Macaca fascicularis
[4] = Toxicity in male rat assessed as NOAEL after 14 days; settings: in vivo, time 14 day

fold change (FC) [1]: 108
fold change (FC) [2]: 638
Activity [3]: inactive
SMILES: CCC[C@H](C)Oc1nc(N)c2[nH]c(=O)n(CCCCCN3CCCCC3)c2n1 [GSK-2245035]
Activity (PBMC): Dose-Dependent Effect
Activity (Cynomolgus monkey): inactive
NOAEL at 336 h [4]: 0.453 mg/kg/day
